From ChEMBL document CHEMBL5584339, “Design, Synthesis, and Evaluation of the Antitubercular Activity of 5-Phenyl Substituted-5, 6-dihydropyrido[2, 3-d]pyrimidine-4, 7(3H, 8H)-dione Compounds” (J Med Chem, 2024)
≈ marks a conversion by molar mass, not a printed value. Calls of active or inactive are those of the source. No cut-off for these calls is given here.

Key:
[1] = test system: Mycobacterium tuberculosis; assay: Binding affinity to Mycobacterium tuberculosis AccD5 at 10 uM by SPR analysis
[2] = Metabolic stability in human liver microsomes assessed as intrinsic clearance per mg protein at 2 uM preincubated for 60 mins followed by NADPH addition and measured upto 60 mins by LC-MS analysis; assay type: ADME, Microsome; conditions: time < 120 min, read-out: CLH
[3] = Observed volume of distribution at steady state in BALB/c mouse at 5 mg/kg, iv measured upto 24 hrs by LC-MS/MS analysis; assay type: ADME, organism-based; conditions: in vivo, read-out: Vdss
Mycobacterium marinum [4] = assay: Antitubercular activity against Mycobacterium marinum infected in adult zebrafish assessed as reduction in bacterial count by measuring CFU at 100 uM measured over 10 days; assay type: functional; conditions: time 10 day
Mycobacterium marinum [5] = assay: Antitubercular activity against Mycobacterium […] assessed as bactericidal effect by measuring colony forming unit at 100 uM measured over 10 days; assay type: functional; conditions: time 10 day
[6] = Half-life in BALB/c mouse at 5 mg/kg, iv measured upto 24 hrs by LC-MS/MS analysis; assay type: ADME, organism-based; conditions: in vivo
[7] = AUCinfinity in BALB/c mouse at 30 mg/kg, po measured upto 24 hrs by LC-MS/MS analysis; assay type: ADME, organism-based; conditions: in vivo
[8] = Metabolic stability in human liver microsomes assessed as half-life at 2 uM preincubated for 60 mins followed by NADPH addition and measured upto 60 mins by LC-MS analysis; assay type: ADME, Microsome; conditions: time < 120 min
Mycobacterium marinum [9] = assay: Antitubercular activity against Mycobacterium […] assessed as bactericidal effect by measuring colony forming unit at 200 uM measured over 10 days; assay type: functional; conditions: time 10 day
[10] = Cytotoxicity against african green monkey Vero cells incubated for 48 hrs by CCK8 assay; assay type: toxicity, cell-based, Chlorocebus sabaeus
[11] = AUClast in BALB/c mouse at 30 mg/kg, po measured upto 24 hrs by LC-MS/MS analysis; assay type: ADME, organism-based; conditions: in vivo
[12] = Cmax in BALB/c mouse at 30 mg/kg, po measured upto 24 hrs by LC-MS/MS analysis; assay type: ADME, organism-based; conditions: in vivo
[13] = AUCinfinity in BALB/c mouse at 5 mg/kg, iv measured upto 24 hrs by LC-MS/MS analysis; assay type: ADME, organism-based; conditions: in vivo
[14] = Observed mean residence time infinity in BALB/c mouse at 5 mg/kg, iv measured upto 24 hrs by LC-MS/MS analysis; assay type: ADME, organism-based; conditions: in vivo
[15] = Dose normalized AUClast in BALB/c mouse at 30 mg/kg, po measured upto 24 hrs by LC-MS/MS analysis; assay type: ADME, organism-based; conditions: in vivo
[16] = Dose normalized AUClast in BALB/c mouse at 5 mg/kg, iv measured upto 24 hrs by LC-MS/MS analysis; assay type: ADME, organism-based; conditions: in vivo
Mycobacterium marinum [17] = assay: Antitubercular activity against Mycobacterium marinum infected in adult zebrafish assessed as reduction in bacterial count by measuring CFU at 50 uM measured over 10 days; assay type: functional; conditions: time 10 day
Mycobacterium marinum [18] = assay: Antitubercular activity against Mycobacterium marinum infected in zebrafish larvae assessed as increase survival rate at 12.5 to 200 uM measured over 10 days by qPCR analysis; assay type: functional, organism-based; conditions: dose 12.5-200 µM, time 10.0 day
[19] = Oral bioavailability in BALB/c mouse at 30 mg/kg measured upto 24 hrs by LC-MS/MS analysis; assay type: ADME, organism-based; conditions: in vivo
[20] = Cytotoxicity against HK-2 cells incubated for 48 hrs by CCK8 assay; assay type: toxicity, cell-based; conditions: human
[21] = Stability in mouse plasma by MS analysis; assay type: ADME, cell-free
[22] = Tmax in BALB/c mouse at 30 mg/kg, po measured upto 24 hrs by LC-MS/MS analysis; assay type: ADME, organism-based; conditions: in vivo
[23] = Metabolic stability in human liver microsomes assessed as substrate remaining at 2 uM preincubated for 60 mins followed by NADPH addition and measured upto 60 mins by LC-MS analysis; assay type: ADME, Microsome; conditions: time < 120 min, read-out: Stability
[24] = Observed extrapolated AUC in BALB/c mouse at 5 mg/kg, iv measured upto 24 hrs by LC-MS/MS analysis; assay type: ADME, organism-based; conditions: in vivo
[25] = Half-life in BALB/c mouse at 30 mg/kg, po measured upto 24 hrs by LC-MS/MS analysis; assay type: ADME, organism-based; conditions: in vivo
[26] = Observed mean residence time infinity in BALB/c mouse at 30 mg/kg, po measured upto 24 hrs by LC-MS/MS analysis; assay type: ADME, organism-based; conditions: in vivo
[27] = Observed clearance in BALB/c mouse at 5 mg/kg, iv measured upto 24 hrs by LC-MS/MS analysis; assay type: ADME, organism-based; conditions: in vivo
[28] = AUClast in BALB/c mouse at 5 mg/kg, iv measured upto 24 hrs by LC-MS/MS analysis; assay type: ADME, organism-based; conditions: in vivo
[29] = biological target: Voltage-gated inwardly rectifying potassium channel KCNH2 (Homo sapiens, UniProt Q12809); assay: Inhibition of human ERG expressed in HEK293 cells by whole cell manual patch clamp method; assay type: toxicity, cell-based
Voltage-gated inwardly rectifying potassium channel KCNH2, sequence (Q12809 whole entry): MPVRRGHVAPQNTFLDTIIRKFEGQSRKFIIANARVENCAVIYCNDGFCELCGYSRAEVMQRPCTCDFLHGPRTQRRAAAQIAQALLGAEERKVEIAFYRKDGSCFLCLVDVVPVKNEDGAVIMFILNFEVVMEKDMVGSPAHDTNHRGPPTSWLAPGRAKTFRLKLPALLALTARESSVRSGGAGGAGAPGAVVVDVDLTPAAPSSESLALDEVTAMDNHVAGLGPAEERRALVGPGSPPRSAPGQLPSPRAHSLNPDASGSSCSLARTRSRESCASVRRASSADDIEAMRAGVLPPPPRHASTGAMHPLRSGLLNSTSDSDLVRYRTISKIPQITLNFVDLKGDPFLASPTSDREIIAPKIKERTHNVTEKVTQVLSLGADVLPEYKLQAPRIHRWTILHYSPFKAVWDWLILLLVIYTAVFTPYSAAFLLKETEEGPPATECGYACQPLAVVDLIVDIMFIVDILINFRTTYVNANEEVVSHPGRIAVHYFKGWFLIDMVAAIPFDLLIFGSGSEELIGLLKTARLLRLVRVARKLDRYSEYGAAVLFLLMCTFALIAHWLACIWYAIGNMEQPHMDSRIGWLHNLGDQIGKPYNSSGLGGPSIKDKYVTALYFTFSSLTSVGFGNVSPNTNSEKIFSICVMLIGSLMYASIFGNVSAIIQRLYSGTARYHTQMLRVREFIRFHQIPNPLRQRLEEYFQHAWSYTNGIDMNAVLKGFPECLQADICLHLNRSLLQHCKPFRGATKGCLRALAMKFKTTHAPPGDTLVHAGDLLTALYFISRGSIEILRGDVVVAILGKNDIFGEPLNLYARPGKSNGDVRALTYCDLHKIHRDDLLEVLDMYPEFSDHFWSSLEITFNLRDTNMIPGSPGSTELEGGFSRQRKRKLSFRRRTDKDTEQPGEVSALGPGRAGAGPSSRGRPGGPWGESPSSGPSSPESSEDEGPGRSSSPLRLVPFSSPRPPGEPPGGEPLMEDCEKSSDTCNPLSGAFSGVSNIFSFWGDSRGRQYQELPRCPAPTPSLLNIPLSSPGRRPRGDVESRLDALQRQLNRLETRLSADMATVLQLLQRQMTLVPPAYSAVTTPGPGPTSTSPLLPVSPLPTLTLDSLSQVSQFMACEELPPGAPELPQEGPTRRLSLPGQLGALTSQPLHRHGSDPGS

[30] = Observed extrapolated AUC in BALB/c mouse at 30 mg/kg, po measured upto 24 hrs by LC-MS/MS analysis; assay type: ADME, organism-based; conditions: in vivo
[31] = test system: Mycobacterium tuberculosis; assay: Antitubercular activity against Mycobacterium tuberculosis H37Rv incubated for 7 days by alamar blue assay; assay type: functional; conditions: 168 h, time 7 day
Mycobacterium marinum [32] = assay: Antitubercular activity against Mycobacterium marinum infected in adult zebrafish assessed as reduction in bacterial count by measuring CFU at 200 uM measured over 10 days; assay type: functional; conditions: time 10 day
[33] = Metabolic stability in mouse liver microsomes assessed as substrate remaining at 2 uM preincubated for 60 mins followed by NADPH addition and measured upto 60 mins by LC-MS analysis; assay type: ADME, Microsome; conditions: time < 120 min, read-out: Stability
[34] = Metabolic stability in mouse liver microsomes assessed as half-life at 2 uM preincubated for 60 mins followed by NADPH addition and measured upto 60 mins by LC-MS analysis; assay type: ADME, Microsome; conditions: time < 120 min
[35] = Metabolic stability in mouse liver microsomes assessed as intrinsic clearance per mg protein at 2 uM preincubated for 60 mins followed by NADPH addition and measured upto 60 mins by LC-MS analysis; assay type: ADME, Microsome; conditions: time < 120 min, read-out: CLH
[36] = Initial plasma concentration in BALB/c mouse at 5 mg/kg, iv measured upto 24 hrs by LC-MS/MS analysis; assay type: ADME, organism-based
Mycobacterium marinum [37] = assay: Antitubercular activity against Mycobacterium marinum infected in adult zebrafish assessed as reduction in bacterial count by measuring CFU at 400 uM measured over 10 days; assay type: functional; conditions: time 10 day
[38] = Selectivity index, ratio of IC50 for african green monkey Vero cells to IC50 for Mycobacterium tuberculosis H37Rv; assay type: toxicity; conditions: read-out: Ratio IC50

SMILES | microsomal CLint at 2 µM [2] [µL/min/mg] | Vd [3] [L/kg] | Activity (Mycobacterium marinum [4]) | Activity (Mycobacterium marinum [5]) [CFU] | half-life [6] [min] | AUC(0-inf) [7] [µg·h/mL] | half-life at 2 µM [8] [min] | Activity (Mycobacterium marinum [9]) [CFU] | IC50 at 48 h [10] [µg/mL] | AUC(0-t) at 24 h [11] [µg·h/mL] | Cmax [12] [ng/mL] | AUC(0-inf) [13] [µg·h/mL] | MRT inf [14] [h] | AUClast/dose [15] [kg·ng·h/mL/mg] | AUClast/dose [16] [kg·ng·h/mL/mg] | Activity (Mycobacterium marinum [17]) | Activity (Mycobacterium marinum [18]) | bioavailability [19] [%] | IC50 at 48 h [20] [µg/mL] | MIC [31] [µg/mL] | other results
CCCSc1nc2c(c(=O)[nH]1)[C@@H](c1ccc(OC)cc1[N+](=O)[O-])CC(=O)N2 | 6.47 | 0.488 | 2.5 10^3CFU | 80 | 786 | 669 | 214 | <10 | > 64 | 595 | 54000 | 175 | 16.4 | 19820 | 26110 | 1 10^2CFU | Active | 63.8 | 41.1 (≈ 105 µM) | 3 (≈ 7.68 µM) | Activity [1]: Active; Stability [21]: Stable; Tmax [22]: 25 min; remaining at 1 h, 2 µM [23]: 83.3%; %AUCextra [24]: 25.2%; half-life [25]: 477 min; MRT inf [26]: 10.1 h; clearance [27]: 0.5 mL/min/kg; AUC(0-t) at 24 h [28]: 131 µg·h/mL; IC50 [29]: > 30 µM; %AUCextra [30]: 11.2%; Activity (Mycobacterium marinum [32]): 1.6 10^4CFU; remaining at 1 h, 2 µM [33]: 86.2%; half-life at 2 µM [34]: 343 min; microsomal CLint at 2 µM [35]: 4.04 µL/min/mg; C0 at 24 h [36]: 32300 ng/mL
CCCSc1nc2c(c(=O)[nH]1)[C@@H](c1ccc(OC)cc1)CC(=O)N2 | 11.5 | 0.312 | 8 10^3CFU | <80 | 421 | 424 | 120 | <80 | > 64 | 410 | 43300 | 125 | 7.8 | 13676 | 23295 | 2 10^2CFU | Active | 56.7 | 32.5 (≈ 94 µM) | 0.06 (≈ 0.174 µM) | Tmax [22]: 30 min; remaining at 1 h, 2 µM [23]: 69.8%; %AUCextra [24]: 6.41%; half-life [25]: 308 min; MRT inf [26]: 6.85 h; clearance [27]: 0.673 mL/min/kg; AUC(0-t) at 24 h [28]: 116 µg·h/mL; IC50 [29]: 24.4 µM; %AUCextra [30]: 3.35%; Activity (Mycobacterium marinum [32]): 1.9 10^5CFU; remaining at 1 h, 2 µM [33]: 88.5%; half-life at 2 µM [34]: 370 min; microsomal CLint at 2 µM [35]: 3.75 µL/min/mg; C0 at 24 h [36]: 45400 ng/mL
CO[C@H]1/C=C/O[C@@]2(C)Oc3c(C)c(O)c4c(O)c(c(/C=N/N5CCN(C)CC5)c(O)c4c3C2=O)NC(=O)/C(C)=C\C=C\[C@H](C)[C@H](O)[C@@H](C)[C@@H](O)[C@@H](C)[C@H](OC(C)=O)[C@@H]1C [RIFAMPIN] | – | – | 4 10^4CFU | – | – | – | – | – | > 100 | – | – | – | – | – | – | – | – | – | – | 0.02 (≈ 0.0243 µM) | Activity (Mycobacterium marinum [37]): 1.5 10^2CFU; selectivity ratio [38]: > 5000
